# Values quoted from earlier work as cited in patent US10227338B2, “Substituted benzenesulfonamides as sodium channel blockers” (Daewoong Pharmaceutical Co., Ltd., priority 2015, dated 2019).
# Tested on: neuropathic pain
smiles,measurement,value
NCC1(CC(=O)O)CCCCC1 [gabapentin],effective for % of the patients,60%
